Measured values from patent US20230129326A1, “METHODS TO PREVENT SARS-COV-2 INFECTION AND TREAT COVID-19” (priority 2020, published 2023).
Values after ≈ are worked out from the molar mass of the structure shown. “Also recorded” adds a separate entry of the source. Like-named read-outs stand apart in the source and are kept apart here.

Key:
ACE2 = ACE2 (Homo sapiens, UniProt Q9BYF1); type: biochemical
SARS-CoV-2 infection = experiment: Drug usage versus SARS-CoV-2 infection in UCSF Health population; type: in vivo; details: for Odds ratio: drug usage vs SARS-CoV-2 infection; for correlation of usage with protection from SARS-CoV-2 infection: statistically significant
[1] = system: SARS-CoV-2 virus (isolate USA-WA1/2020); experiment: microbe, parasite or virus in culture; type: cell-based
[2] = molecular target: ACE2/SARS spike protein interaction (Homo sapiens, UniProt Q9BYF1); type: cell-based, SARS-CoV
Sequence of ACE2/SARS spike protein interaction (Q9BYF1 18-805 limits assumed): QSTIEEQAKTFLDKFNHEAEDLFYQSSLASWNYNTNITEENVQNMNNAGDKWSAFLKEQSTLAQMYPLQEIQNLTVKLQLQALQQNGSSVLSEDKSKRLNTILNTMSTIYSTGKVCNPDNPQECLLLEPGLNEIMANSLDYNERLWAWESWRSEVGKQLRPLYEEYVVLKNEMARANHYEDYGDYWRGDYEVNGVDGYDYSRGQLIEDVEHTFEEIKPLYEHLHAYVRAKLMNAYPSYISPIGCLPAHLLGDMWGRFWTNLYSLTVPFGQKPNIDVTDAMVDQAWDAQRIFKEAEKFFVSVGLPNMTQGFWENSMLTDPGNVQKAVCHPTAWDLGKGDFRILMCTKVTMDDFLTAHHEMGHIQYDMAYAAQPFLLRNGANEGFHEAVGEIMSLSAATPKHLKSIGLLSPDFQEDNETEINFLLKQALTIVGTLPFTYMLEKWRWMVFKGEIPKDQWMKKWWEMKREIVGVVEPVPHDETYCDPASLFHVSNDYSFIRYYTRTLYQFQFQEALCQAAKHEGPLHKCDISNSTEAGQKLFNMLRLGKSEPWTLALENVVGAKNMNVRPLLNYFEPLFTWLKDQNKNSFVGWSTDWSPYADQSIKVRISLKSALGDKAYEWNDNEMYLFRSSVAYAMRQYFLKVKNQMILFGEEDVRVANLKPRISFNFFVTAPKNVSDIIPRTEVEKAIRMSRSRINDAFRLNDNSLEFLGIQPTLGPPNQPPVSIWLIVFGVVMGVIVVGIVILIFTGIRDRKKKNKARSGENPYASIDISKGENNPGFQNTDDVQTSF

[3] = design: species or system mice; details: mouse, in vivo
SARS-CoV-2 Strain WA-1 = system: SARS-CoV-2 Strain WA-1; design: species or system hACE2-transgenic mice; details: mouse, in vivo
[4] = system: SARS-CoV-2 isolate USA-UF-1/2020; experiment: microbe, parasite or virus in culture; type: cell-based; details: for EC50: Severe acute respiratory syndrome coronavirus 2, Vero C1008, read-out: EC50, 50% inhibition of SARS-CoV-2 isolate USA-UF-1/2020 infection of Vero E6 cells
[5] = Cytotoxicity (50% cytotoxic concentration); type: cell-based
[6] = system: SARS-CoV-2 isolate USA-UF-1/2020; type: cell-based
SARS-CoV-2 = experiment: N protein copies by qPCR in VeroE6 cells infected with SARS-CoV-2; type: cell-based; details: VeroE6, MOI 0.01, 48 h; drug by itself

Sequence of ACE2 (Q9BYF1 18-805): as the sequence (Q9BYF1 18-805 limits assumed) above

Compound: N=C(N)c1ccc(/N=N/Nc2ccc(C(=N)N)cc2)cc1 [diminazene]
- ACE2 binding activity (velocity of ACE2) (ACE2): Enhanced velocity of ACE2

Compound: CN(C)CCC(c1ccc(Br)cc1)c1ccccn1 (centres unmarked) [Brompheniramine]
- Odds ratio (SARS-CoV-2 infection): 0.76

Compound: O=c1c(O)c(-c2cc(O)c(O)c(O)c2)oc2cc(O)cc(O)c12 [Myricetin, myricetin]
- in vitro activity against SARS-CoV-2 [1]: observed to have in vitro activity

Compound: NCCNCCNCCN [Triethylenetetramine, triethylenetetramine]
- ACE2/SARS spike protein interaction [2]: Inhibits ACE2/SARS spike protein interaction
- ACE2 binding activity (velocity of ACE2) (ACE2): Inhibits velocity of ACE2

Compound: CN(C)CC/C=C1/c2ccccc2Sc2ccc(Cl)cc21.Cl [Minithixen, Chlorprothixene hydrochloride]
- ACE2 binding activity (velocity of ACE2) (ACE2; hydrochloride): Inhibited velocity of ACE2

Compound: LQSYGFQPTNGV peptide
- immune response in mice [3]: induced a strong immune response
- lungs at gross necropsy (SARS-CoV-2 Strain WA-1): some damage/abscesses in the lungs
- survival at 5 dpi (SARS-CoV-2 Strain WA-1): survived 5 dpi
- viral load in the lungs (plaque forming units) (SARS-CoV-2 Strain WA-1): low plaque forming units per liter in the lungs

Compound: OCCOCCN1CCN(C(c2ccccc2)c2ccc(Cl)cc2)CC1 (centres unmarked) [hydroxyzine]
- direct antiviral activity against SARS-CoV-2 isolates in vitro [4]: exhibited direct antiviral activity
- EC50 [4]: 15.3 µg/mL (≈ 40.8 µM)
- 50% cytotoxic concentration [5]: approximately 50 μg/ml
- viral burden [1]: lowered viral burden to below the level of detection
- EC50 ([1]; Severe acute respiratory syndrome coronavirus 2, Vero C1008, 48 h, read-out: EC50, viral burden by plaque assay): 11.3 µg/mL (≈ 30.1 µM)
- EC50 ([1]; Severe acute respiratory syndrome coronavirus 2, Vero C1008, read-out: anti-SARS-CoV-2 activity EC50): 11.3 µg/mL (≈ 30.1 µM)
- level of SARS-CoV-2 mRNA expressed in the cells [6]: significantly lowered
- ACE2 binding activity (velocity of ACE2) (ACE2): inhibited ACE2 activity; also recorded: Inhibited velocity of ACE2
- Odds ratio (SARS-CoV-2 infection): 0.76

Compound: CC(CCc1ccccc1)NCC(O)c1ccc(O)c(C(N)=O)c1 (centres unmarked) [labetalol]
- ACE2 binding activity (velocity of ACE2) (ACE2): Enhanced velocity of ACE2

Compound: CN(C)CCC(c1ccc(Cl)cc1)c1ccccn1 (centres unmarked) [chlorpheniramine]
- Odds ratio (SARS-CoV-2 infection): 0.23
- correlation of usage with protection from SARS-CoV-2 infection (SARS-CoV-2 infection): correlated with protection from SARS-CoV-2 infection

Compound: CCN(CC)CCCN(c1ccccc1)C1Cc2ccccc2C1 [Aprindine, aprindine]
- ACE2 binding activity (velocity of ACE2) (ACE2): Inhibited velocity of ACE2

Compound: CN(C)CCOC(c1ccccc1)c1ccccc1 [diphenhydramine]
- direct antiviral activity against SARS-CoV-2 isolates in vitro [4]: exhibited direct antiviral activity

Compound: CN1CCCC(n2nc(Cc3ccc(Cl)cc3)c3ccccc3c2=O)CC1 (centres unmarked) [azelastine]
- direct antiviral activity against SARS-CoV-2 isolates in vitro [4]: exhibited direct antiviral activity
- EC50 [4]: 2.24 µg/mL (≈ 5.87 µM)
- Odds ratio (SARS-CoV-2 infection): 0.16
- correlation of usage with protection from SARS-CoV-2 infection (SARS-CoV-2 infection): correlated with protection from SARS-CoV-2 infection

Compound: CC(CN1c2ccccc2Sc2ccccc21)N(C)C (centres unmarked) [Promethazine]
- reduction of viral replication in vitro (SARS-CoV-2): ~100 ×

Compound: NCCNCCN1CC1 [N-(2-aminoethyl)-1 aziridine-ethanamine, N-(2-aminoethyl)-1-aziridine-ethanamine]
- ACE2/SARS spike protein interaction [2]: inhibited ACE2 interactions with SARS-CoV spike protein; also recorded: Inhibits ACE2/SARS spike protein interaction
- SARS S-glycoprotein-mediated cell fusion [2]: effective in blocking the SARS coronavirus spike protein-mediated cell fusion; also recorded: inhibits SARS S-glycoprotein-mediated cell fusion; also recorded: inhibition of SARS S-glycoprotein-mediated cell fusion
- ACE2 binding activity (velocity of ACE2) (ACE2): Inhibits velocity of ACE2
